From patent US8513423B2 (Janssen Pharmaceutica, NV, priority 2010, dated 2013)

Target: T1, purified wild type MGL (wt-MGLL 6H-11-313) (Homo sapiens, UniProt Q99685)
T1 construct: purified wild type MGL (wt-MGLL 6H-11-313)
T1 sequence (Q99685 1-303): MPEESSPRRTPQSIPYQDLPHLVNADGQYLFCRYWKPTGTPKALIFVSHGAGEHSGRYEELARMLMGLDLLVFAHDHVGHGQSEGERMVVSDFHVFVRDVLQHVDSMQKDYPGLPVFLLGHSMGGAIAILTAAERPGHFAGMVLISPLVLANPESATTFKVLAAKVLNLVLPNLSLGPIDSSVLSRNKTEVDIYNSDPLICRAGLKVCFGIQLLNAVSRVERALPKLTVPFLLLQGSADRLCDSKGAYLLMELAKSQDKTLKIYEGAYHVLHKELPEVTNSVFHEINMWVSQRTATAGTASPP
Assay: MGL enzyme activity assay (4MU-B cleavage), wild type MGL
Type: biochemical
Conditions: 10 μM 4MU-B, 5 nM enzyme, 37° C., read-out: MGL wild type inh IC50
Summary of the method: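 Enzyme (5 nM final) cleaved 4MU-B (10 μM final) in 20 mM PIPES pH 7.0 with 150 mM NaCl and 0.001% Tween 20. Compounds were tested at 17 to 0.0003 μM final. Fluorescence (ex 335/em 440 nm) was monitored at 37° C for 5 min, and IC50 was fitted from fractional activity versus inhibitor concentration.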

Row | IC50 | Structure (SMILES)
1 | < 5 nM | Cc1c(C(=O)N2CC(C3CCN(C(=O)c4nccs4)CC3)C2)sc2cc(C(F)(F)F)ccc12 [Cpd 20, 4-(1-{[3-Methyl-6-(trifluoromethyl)-1-benzothiophen-2-yl]carbonyl}azetidin-3-yl)-1-(1,3-thiazol-2-ylcarbonyl)piperidine]
2 | 6 nM | O=C(c1nccs1)N1CCC(C2CN(C(=O)c3sc4cc(C(F)(F)F)ccc4c3Cl)C2)CC1 [Cpd 29, 4-(1-{[3-Chloro-6-(trifluoromethyl)-1-benzothiophen-2-yl]carbonyl}azetidin-3-yl)-1-(1,3-thiazol-2-ylcarbonyl)piperidine]
